The values below come from patent publication US8445636B2, “Antimicrobial and anticancer lipopeptides” (Yeda Research & Development Co. Ltd., priority 2003, dated 2013).

Converted amounts (≈) assume the structure as drawn. Read-outs that look alike come from different tables or passages of the source. Non-standard residues stand in square brackets, D forms with d. Residues, ends and D or L forms follow the SMILES beside them. *: point of attachment. Palmitoyl = CCCCCCCCCCCCCCCC(=O)*; Myristoyl = CCCCCCCCCCCCCC(=O)*

Holding throughout (assay type): cell-based
Experiment [1] deals with Aspergillus fumigatus ATCC 26430. Briefly: microbe, parasite or virus in culture.
Experiment [2] concerns Candida albicans ATCC 10231. Briefly: microbe, parasite or virus in culture. The note with it: for MIC: read-out: Minimal Inhibitory Concentration, Candida Albicans (ATCC 10231). The method, then: (§1) The antifungal activity of the lipopeptides was examined in sterile 96-well plates (Nunc F96 microtiter plates) in a final volume of 200 μL as follows: 100 µl of a suspension containing fungi at a concentration of 1×10^4 Colony-Forming Units (CFU)/ml in culture medium (RPMI 1640, 0.165 M MOPS with L-glutamine, without NaHCO3) at pH 7.4 or pH 5.5 (adjustment of the pH was done by diluted solutions of HCl and NaOH) were added to 100 μl of water containing the peptide in serial 2-fold dilutions in water. The fungi were incubated in the presence of the lipopeptides for 24-48 h at 35° C. in a Binder KB115 incubator under agitation. Growth inhibition was determined by measuring the absorbance at 620 nm with a Microplate autoreader E1309 (Bio-Tek Instruments). Antifungal activity is expressed as the minimal inhibitory concentration (MIC), the concentration at which 100% inhibition of fungi growth was observed after the incubation time mentioned above. The fungi used were: Aspergillus niger ATCC 9642, Candida albicans ATCC 10231 and Cryptococcus neoformans ATCC 66031. If not indicated otherwise, the fungi growth was detected at pH 7.4.

Experiment [3] concerns Cryptococcus neoformans ATCC 66031. Nature of the experiment: microbe, parasite or virus in culture. The note with it: ATCC 66031, pH 7.4. The method, then: as §1
For experiment [4], the system named is Pseudomonas aeruginosa ATCC 27853. Here is the method: (§2) The antibacterial activity of the lipopeptides was examined in sterile 96-well plates (Nunc F96 microtiter plates) in a final volume of 100 μl as follows: Aliquots (50 μl) of a suspension containing bacteria at concentration of 1×10^6 Colony-Forming Units (CFU)/ml in culture LB (Lauria broth) medium (pH 7.4 or pH 5.5) were added to 50 μl of water containing the lipopeptide in serial 2-fold dilutions in water. Adjustment of the pH was done by diluted solutions of HCl and NaOH Inhibition of growth was determined by measuring the absorbance at 600 nm with a Microplate autoreader E1309 (Bio-Tek Instruments), after an incubation time of 18-20 h at 37° C. Antibacterial activities were expressed as the minimal inhibitory concentration (MIC), the concentration at which 100% inhibition of growth was observed after 18-20 h of incubation. The bacteria used were: Escherichia coli ATCC 25922, Acinetobacter baumannii ATCC 19606, Pseudomonas aeruginosa ATCC 27853, Staphylococcus aureus ATCC 6538P, Enterococcus faecalis ATCC 29212, Enterobacter cloacae ATCC 49141. The antibacterial activity of lipopeptides was also examined against resistant bacteria: methicilin-resistant Staphylococcus aureus (MRSA) ATCC 700698 and vancomycin-resistant Enterococcus faecium (VRE) ATCC 700221. If not indicated otherwise, the bacterial growth was detected at pH 7.4.

The subject of experiment [5] is methicilin-resistant Staphylococcus aureus (MRSA) ATCC 700698. The note with it: ATCC 700698, pH 7.4. Here is the method: as §2
The subject of experiment [6] is Staphylococcus aureus ATCC 6538P. The method, then:
as §2

Experiment [7] relates to Escherichia coli ATCC 25922. The note with it: for Minimal Inhibitory Concentration, E. coli: ATCC 25922, pH 7.4. The method, then: as §2
The subject of experiment [8] is Enterococcus faecalis ATCC 29212. The conditions noted are these: ATCC 29212, pH 7.4. The method, then:
as §2

Experiment [9] relates to Enterobacter cloacae ATCC 49141. The conditions noted are these: ATCC 49141, pH 7.4. Here is the method: as §2
The subject of experiment [10] is Cryptococcus neoformans ATCC MYA-422. Briefly: microbe, parasite or virus in culture. The conditions noted are these: read-out: Minimal Inhibitory Concentration, Cyrptococcus neoformans (ATCC MYA-422).
Another experiment deals with B. subtilis ATCC 6051. The note with it: ATCC 6051.
Experiment [11] relates to Acinetobacter baumannii ATCC 19606. The note with it: ATCC 19606, pH 7.4. The method, then:
as §2

The next experiment deals with E. coli D21. The conditions noted are these: D21, pH 7.4.

For `CCCCCCCCCCCCCC(=O)N[C@H](CCCCN)C(=O)NCC(=O)NCC(=O)NCC(=O)N[C@H](CCCCN)C(=O)NCC(=O)NCC(=O)NCC(=O)N[C@H](CCCCN)C(=O)NCC(=O)NCC(=O)N[C@H](CCCCN)C(N)=O` [lipopeptide 1, (CH3—(CH2)12—CO—)-D-Lys-Gly-Gly-Gly-D-Lys-Gly-Gly-Gly-D-Lys-Gly-Gly-D-Lys-NH2] (Myristoyl-[dK]GGG[dK]GGG[dK]GG[dK]-NH2), in [1] (ATCC 26430, pH 7.4), the “Minimal Inhibitory Concentration, A. fumigatus ATCC 26430” value turned out to be 6.25 µM. Besides, the “Minimal Inhibitory Concentration, C. albicans ATCC 10231” value in experiment [2] (ATCC 10231, pH 7.4) is 3.125 µM. The “Minimal Inhibitory Concentration, C. neoformans ATCC 66031” value in experiment [3] amounted to 6.25 µM. Besides, in [4] (ATCC 27853, pH 7.4), the “Minimal Inhibitory Concentration, P. Aeruginosa” value came to 6.25 µM. Also, in experiment [5], the “Minimal Inhibitory Concentration, S. aureus (MRSA)” value stood at 6.25 µM. Also, the “Minimal Inhibitory Concentration, S. aureus” value in [6] (ATCC 6538, pH 7.4) came out at 6.25 µM. Besides, in experiment [7], the “Minimal Inhibitory Concentration, E. coli” value was 12.5 µM. Moreover, the “Minimal Inhibitory Concentration, E. faecalis” value in [8] turned out to be 3.125 µM. Further, in [9], the “Minimal Inhibitory Concentration, E. cloacae” value is 3.125 µM.

On to `CC[C@H](C)[C@H](NC(=O)CN)C(=O)NCC(=O)N[C@@H](CCCCN)C(=O)N[C@@H](Cc1ccccc1)C(=O)N[C@H](CC(C)C)C(=O)N[C@@H](Cc1c[nH]cn1)C(=O)N[C@@H](CO)C(=O)N[C@@H](C)C(=O)N[C@H](CCCCN)C(=O)N[C@@H](CCCCN)C(=O)N[C@@H](Cc1c[nH]c2ccccc12)C(=O)NCC(=O)N[C@@H](CCCCN)C(=O)N[C@@H](C)C(=O)N[C@H](Cc1ccccc1)C(=O)N[C@H](C(=O)NCC(=O)N[C@H](CCC(=O)O)C(=O)N[C@H](C(=O)N[C@@H](CCSC)C(=O)N[C@@H](CC(N)=O)C(=O)N[C@@H](CO)C(N)=O)[C@@H](C)CC)C(C)C` [[D]4magainin, Gly-Ile-Gly-Lys-Phe-D-Leu-His-Ser-Ala-D-Lys-Lys-Trp-Gly-Lys-Ala-D-Phe-Val-Gly-D-Glu-Ile-Met-Asn-Ser-NH2, reference compound] (H-GIGKF[dL]HSA[dK]KWGKA[dF]VG[dE]IMNS-NH2; N-terminus assumed), for which the “Minimal Inhibitory Concentration, Aspergillus fumigatus (ATCC 26430)” value in [1] (ATCC 26430) is more than 50 µM. Besides, the MIC is reported as more than 50 µM in [2] (ATCC 10231) and more than 50 µM in [10] (Table 17, D-magainin analog, mean of 3 experiments, standard deviation of 25%). In addition, the “Minimal Inhibitory Concentration, B. subtilis (ATCC 6051)” value in the experiment with B. subtilis ATCC 6051 is 50 µM. Moreover, in experiment [4] (ATCC 27853), the “Minimal Inhibitory Concentration, P. aeruginosa ATCC 27853” value is more than 50 µM. Also, the “Minimal Inhibitory Concentration, S. aureus ATCC 6538P” value in experiment [6] (ATCC 6538) was more than 50 µM. Moreover, the “Minimal Inhibitory Concentration, E. coli (ATCC 25922)” value in [7] (ATCC 25922) is more than 50 µM.

Regarding `CCCCCCCCCCCCCCCC(=O)N[C@@H](CCCCN)C(=O)NCC(=O)NCC(=O)NCC(=O)N[C@@H](CCCCN)C(=O)NCC(=O)NCC(=O)NCC(=O)N[C@@H](CCCCN)C(=O)NCC(=O)NCC(=O)N[C@@H](CCCCN)C(N)=O` [lipopeptide 4, (CH3—(CH2)14—CO—)-Lys-Gly-Gly-Gly-Lys-Gly-Gly-Gly-Lys-Gly-Gly-Lys-NH2] (Palmitoyl-KGGGKGGGKGGK-NH2), the “Minimal Inhibitory Concentration, A. fumigatus ATCC 26430” value in experiment [1] (ATCC 26430, pH 7.4) was 6.25 µM. Moreover, the “Minimal Inhibitory Concentration, C. albicans ATCC 10231” value in [2] (ATCC 10231, pH 7.4) worked out at 3.125 µM. Besides, the “Minimal Inhibitory Concentration, C. neoformans ATCC 66031” value in experiment [3] worked out at 1.56 µM. Besides, in experiment [4] (ATCC 27853, pH 7.4), the “Minimal Inhibitory Concentration, P. Aeruginosa” value came out at 6.25 µM. Further, the “Minimal Inhibitory Concentration, S. aureus (MRSA)” value in [5] was 12.5 µM. In [6] (ATCC 6538, pH 7.4), the “Minimal Inhibitory Concentration, S. aureus” value turned out to be 12.5 µM. Moreover, the “Minimal Inhibitory Concentration, E. coli” value in experiment [7] came out at 25 µM. Further, the “Minimal Inhibitory Concentration, A. Baumaannii” value in experiment [11] is 25 µM. Besides, the “Minimal Inhibitory Concentration, E. faecalis” value in [8] came to 12.5 µM. Also, the “Minimal Inhibitory Concentration, E. cloacae” value in experiment [9] is 50 µM.

As for `CCCCCCCCCCCCCCCC(=O)N[C@@H](CCC(=O)O)C(=O)N[C@@H](CCCCN)C(=O)N[C@H](CCCCN)C(=O)N[C@@H](CCCCN)C(N)=O` [PA-EKKK, Palmitoyl-Glu-Lys-D-Lys-Lys-NH2] (Palmitoyl-EK[dK]K-NH2), the MIC in experiment [1] (ATCC 26430, pH 7.4, read-out: Minimal Inhibitory Concentration, Aspergillus Fomigatus (ATCC 26430)) worked out at 12.5 µM (≈ 9.61 µg/mL); in experiment [2] (ATCC 10231, pH 7.4), 25 µM (≈ 19.2 µg/mL); in [10] (ATCC MYA-422, pH 7.4) it was 6.25 µM (≈ 4.81 µg/mL). Further, the “Minimal Inhibitory Concentration, P. aeruginosa ATCC 27853” value in [4] (ATCC 27853, pH 7.4) was more than 100 µM. In addition, the “Minimal Inhibitory Concentration, S. aureus ATCC 6538P” value in experiment [6] (ATCC 6538, pH 7.4) stood at 12.5 µM. The “Minimal Inhibitory Concentration, A. baumannii ATCC 19606” value in experiment [11] is more than 100 µM. In addition, the “Minimal Inhibitory Concentration, E. coli-D21” value in the experiment with E. coli D21 was 25 µM.
